Earlier results, collected in US20090078254A1, “Anesthetic Agent Recovery” (priority 2004, published 2009).
Where two headings read alike, the source gives them in different places.

Assays:
[1] = test system: population moving in response to pain; conditions: for MAC (Minimum Alveolar Concentration of gas that prevents 50% of population from moving in response to pain): adding 50% MAC N2O drops MAC value of agent by 50%
[2] = produces inorganic fluoride
[3] = not given; remark: listed apart in the source
[4] = not given; remark: listed apart in the source
[5] = in vitro and in vivo studies

Row | SMILES | Liver damage (byproducts of reductive metabolism) | Malignant hyperthermia (in vivo) | MAC (Minimum Alveolar Concentration of gas that prevents 50% of population from moving in response to pain) [1] | metabolism [2] | Stability In Moist Soda Lime ([3]; 40° C.) | Stability In Moist Soda Lime ([3]; 60° C.) | Stability In Moist Soda Lime ([3]; 80° C.) | Stability in the presence of standard CO2 absorbents ([3]; soda lime, baralime) | SVP@20° C. [4] | Potency relative to ISOFLURANE ([1]; fraction of isoflurane potency) | SVP@18° C. [4] | SVP@22° C. [4] | SVP@24° C. [4] | SVP@26° C. [4] | saturated vapor pressure ([4]; room temperature) | Compound stability [5]
1 | FC(F)(F)C(Cl)Br (stereo not drawn) [HALOTHANE] | can cause liver damage | potential to cause malignant hyperthermia |  |  |  |  |  |  |  |  |  |  |  |  |  | 
2 | FCOC(C(F)(F)F)C(F)(F)F [SEVOFLURANE] |  |  | 1.5-2.5% | 5% | Unstable | Unstable | Unstable | unstable | 157 mm Hg |  |  |  |  |  |  | 
3 | FC(F)OC(F)C(F)(F)F (stereo not drawn) [DESFLURANE] |  |  | 5-8% |  | Stable | Stable | Sl. Unstable |  | 700 mm Hg | about ⅕ | 653 mm Hg | 750 mm Hg | 804 mm Hg | 860 mm Hg | ~1.0 atm. | extremely stable
4 | FC(F)OC(Cl)C(F)(F)F (stereo not drawn) [ISOFLURANE] |  |  | 1-1.6% |  | Stable | Stable | Stable |  | 240 mm Hg |  | 219 mm Hg | 262 mm Hg | 286 mm Hg | 312 mm Hg |  | 
